Patent US8951507B2, “Formulation with irritation reducing action comprising bisabolol and [6]-paradol” (Symrise AG, priority 2009, dated 2015)
“Also recorded” adds a separate entry of the source. Where two headings read alike, the source gives them in different places.

Experiments:
[1] = literature reports; cited from earlier work
[2] = tested on: PGE2 release of human skin cells (keratinocytes); experiment: Anti-Prostaglandin E2 (PGE2) assay, A23187-induced PGE2 release, ELISA; assay type: cell-based; conditions: for Maximum PGE2 inhibition: at optimum concentration, versus A23187-stimulated control; for Optimum: concentration giving maximum PGE2 inhibition; for IC50: primary human epidermal keratinocytes, 2 μM A23187 calcium ionophore, at least two independent experiments, read-out: IC50 (50% of PGE2 release is inhibited)
Description: PGE2 is an important inflammatory mediator in the skin. Thus, the inhibiting effect of [6]-paradol and related compounds on (A23187-induced) PGE2 release of human skin cells (keratinocytes) is investigated.
Primary human epidermal keratinocytes are seeded into a 96 well microplate and are cultured in KGM medium to 60-80% confluency. Afterwards, the KGM medium is substituted by KGM medium depleted of hydrocortisone but containing the test compounds (test compound solutions are applied in medium in three different concentrations, each as a triple determination in three different wells, e.g. for [6]-paradol: in experiment 1 the following concentrations were used: 20 μM, 2 μM and 0.2 μM, in experiment 2 the following concentrations were used: 10 μM, 1 μM and 0.1 μM and in experiment 3 the following concentrations were used: 2.5 μM, 0.25 μM and 0.025 μM.
The cells are incubated for 30 minutes. Then, PGE2 release is stimulated by addition of 2 μM A23187 calcium ionophore. After further 30 min incubation, the PGE2 content of the supernatant is quantified in an ELISA (PGE2 Enzyme Immunoassay System from GE Healthcare).
The results set out above were obtained from at least two independent experiments. PGE2 inhibition was calculated in comparison to the calcium ionophore A23187-induced stimulated control (without addition of test compounds).

[3] = Stability in cosmetic compositions or products at varying pH (own experiments); assay type: physicochemical; conditions: basic, neutral or acidic cosmetic compositions or products
Excerpt: Furthermore, in contrast to gingerols and shogaols, in particular to gingerols, which are labile and prone to degradation (J. Pharm. Sci. 2001, 1658-1664), thus showing insufficient stability, according to own experiments [6]-paradol is very stable in cosmetic compositions or products, even at varying pH-values, i.e. in basic, neutral or acidic cosmetic compositions or products.
The synergistic combinations of bisabolol and [6]-paradol, i.e. the formulations according to the present invention, are preferably colourless, are advantageously of low odour and show good stability even at pH values […], which is of particular interest for several cosmetic products such as sunscreen formulations, soaps, deo sticks, alkaline hair colourations and oral care formulations like tooth pastes. The synergistic combinations of bisabolol and [6]-paradol are advantageously stable over a wide range of pH-values, generally in cosmetic compositions or products having a pH-value in the range of 4 to 10, in particular in cosmetic compositions or products having a pH-value in the range of 5 to 9.

Row | SMILES | Mutagenicity [1] | Maximum PGE2 inhibition [2] | Optimum [2] [µM] | IC50 [2] [nM] | Stability in cosmetic compositions or products [3] | IC50 ([2]; Keratinocyte) [nM] | PGE2 inhibitory activity compared with the other tested compounds ([2]; among [6]-paradol, [6]-gingerol, [8]-gingerol and [8]-paradol)
1 | CCCCC[C@H](O)CC(=O)CCc1ccc(O)c(OC)c1 [[6]-Gingerol] | potent mutagen | ~30% | 5 | 3470 ± 4080 |  |  | 
2 | CCCCCCCC(=O)CCc1ccc(O)c(OC)c1 [[6]-Paradol, 1-(4-hydroxy-3-methoxyphenyl)-decan-3-one] | not mutagenic | 90-100% | 5 |  | very stable | 130 | most active; also recorded: highest activity
3 | CCCCCCC[C@H](O)CC(=O)CCc1ccc(O)c(OC)c1 [[8]-Gingerol] |  | ~70% | 20 | 1420 ± 670 |  |  | 
4 | CCCCCCCCCC(=O)CCc1ccc(O)c(OC)c1 [[8]-Paradol] |  | 80-100% | 10 | 1480 ± 1210 |  |  | 
